{"source": "patent US20160228444A1", "about": "“NUCLEOSIDE ANALOGS AND USES THEREOF” (Ramot at Tel-Aviv University Ltd., priority 2015, published 2016)", "key": {"[1]": {"test_system": "U251 MG human glioma cells", "test": "FACS viability, annexin V-FITC / PI", "format": "cell-based", "method": "(§1) Cell viability by flow cytometry analysis (FACS) analysis was determined using the Mebcyto apoptosis kit (MBL-Japan). The cell lines 4T1, U251 (2×10^5 cells/well), astrocytes and the cardiomyoblastic cell line H9C2 (5×10^5 cells/well) were seeded in six-well plates. Following treatment they were trypsinized, washed with PBS, resuspended in […] of binding buffer and double-stained with annexin V-FITC and propidium iodide (PI) according to the manufacturer's instructions. The stained cells were subjected to FACS analyses (Calibur cytometer, Becton Dickinson) where 30,000 cells were allowed to flow for each determination point and the percentage of cells in each state (viability or death) was defined by their distribution in fluorescence dot-plots using WinMdi 2.8 software (Scripps Research Institute, La-Jolla, USA).\n(§2) The apoptotic effect of AN446, Dox and their combination was evaluated in U251 and 4T1 cancer cells, and in the non-cancerous rat cardiomyoblast cell line (H9C2) and in primary rat astrocytes, using procedures previously described for AN7 [Tarasenko et al., Invest New Drugs 2012, 30:130-143]."}, "[2]": {"test_system": "murine mammary carcinoma 4T1", "test": "FACS viability, annexin V-FITC / PI", "format": "cell-based", "conditions": "AN446 24 h; 200 nM Dox 5 h; combination compared to Dox alone; FIG. 1C", "method": "as §1, §2"}, "HO-1": {"test_system": "HO-1", "test": "HO-1 protein and mRNA in tumor and heart of xenograft mice (Western blot, qRT-PCR)", "format": "in vivo", "conditions": "heart", "method": "(§3) Tumors and hearts of the mice were rapidly removed, frozen on dry ice and kept at −70° C. Tissue was then homogenized and RNA and proteins extracted using the NucleoSpin® RNA/Protein kit according to the manufacturer's protocol (Macherey-Nagel, GmbH & Co KG).\n(§4) Total RNA ([…]) was primed by oligo dT and reverse-transcribed by Verso cDNA kit according to the manufacturer's protocol (Thermo Scientific). Analyses of qPCR were performed with Kapa Sybr® Fast (Kapa Biosystems) on a Step One Plus thermocycler (Applied Biosystems). The comparative threshold method was used to calculate the relative gene expression. Values were normalized against glyceraldehyde 3-phosphate dehydrogenase (GAPDH). Expression of the GAPDH mRNA in each individual sample was used to normalize the dataset. The sequences of the primers were as follows: […]\n(§5) Protein levels in the samples were determined with the BCA protein assay kit (Pierce). The samples were subjected to Western blot analyses. The expression of proteins was visualized using their specified primary antibodies followed by the secondary IgG IRDye® 680DX antibody. Each detected band was quantified using the Odyssey Infrared Imaging System (LI-COR Biosciences) and normalized to the level of actin. The fold increase of a specific protein was determined by the ratio of the band intensity obtained from treated and untreated samples.\nThe effect of the drugs on the expression of genes associated with cell survival and death was examined by following changes in transcription and protein expression in tissue samples taken from the mice with glioblastoma xenografts. Heme oxygenase (HO-1) is known to play a protective role in the heart, whereas, in many cancers it is expressed and promotes growth and survival of neoplastic cells."}, "bFGF": {"test_system": "bFGF", "test": "bFGF protein and mRNA in tumor and heart of xenograft mice (Western blot, qRT-PCR)", "format": "in vivo", "conditions": "for expression of mouse bFGF protein in the heart: FIG. 4D; for expression of bFGF in tumors / bFGF mRNA in the tumor: tumor; for bFGF mRNA in the tumor: FIG. 6", "method": "as §3, §4, §5\n(§6) The pro-angiogenic factors basic fibroblast growth factor (bFGF) and vascular endothelial growth factor (VEGF) are potent angiogenic stimulators. The expression of bFGF in the tumor and in the heart was evaluated by Western blot and qRT-PCR analyses and expression of VEGF by IHC."}, "VEGF": {"test_system": "VEGF", "test": "VEGF immunohistochemistry in tumor and heart of xenograft mice", "format": "in vivo", "conditions": "FIG. 4F", "method": "as §6"}, "c-Myc": {"test_system": "c-Myc", "test": "c-Myc and p-c-Myc (Thr 58) Western blot in tumor and heart of xenograft mice", "format": "in vivo", "method": "as §5\nThe c-Myc protein is an important regulator of normal cell physiology and in tumor cells it plays an important role in activating oncogenic pathways [Soucek & Evan, Curr Opin Genet Dev 2010, 20:91-95]."}, "TLR4 [3]": {"test_system": "TLR4", "test": "TLR4 expression in LPS-treated THP1 cells (anti-TLR4 antibodies, FACS)", "format": "cell-based", "conditions": "1 μg/ml LPS, AN446 20 or 40 μM, FIG. 7A", "method": "(§7) The effect of AN446 on inflammation-associated pathways was evaluated in the monocytic THP1 cell line and in the MDA-MB-231 breast carcinoma cell line. Supernatants of treated THP1 cells were collected and IL-6, IL-10 and TNF-α concentrations were quantified by ELISA (R&D systems). TLR4 expression in THP1 cells was assessed using fluorescent anti-TLR4 antibodies and FACS analysis. In addition, gene expression for MCP-1, TNF-α and TLR4 in MDA-MB-231 was evaluated by qRT-PCT, following treatment with AN446 and/or paclitaxel."}, "IL-6": {"test_system": "IL-6", "test": "IL-6 in supernatant of LPS-treated THP1 cells (ELISA)", "format": "cell-based", "conditions": "1 μg/ml LPS, AN446 20 or 40 μM, FIG. 7B", "method": "as §7"}, "TNF-α [4]": {"test_system": "TNF-α", "test": "TNF-α in supernatant of LPS-treated THP1 cells (ELISA)", "format": "cell-based", "conditions": "1 μg/ml LPS, AN446 20 or 40 μM, FIG. 7B", "method": "as §7"}, "IL-10": {"test_system": "IL-10", "test": "IL-10 in supernatant of LPS-treated THP1 cells (ELISA)", "format": "cell-based", "conditions": "1 μg/ml LPS, FIG. 7B", "method": "as §7"}, "TLR4 [5]": {"test_system": "TLR4", "test": "TLR4 gene expression in MDA-MB-231 cells (qRT-PCR)", "format": "cell-based, human", "conditions": "FIG. 7C", "method": "as §7"}, "TNF-α [6]": {"test_system": "TNF-α", "test": "Serum TNF-α in U251 xenograft mice (ELISA)", "format": "in vivo", "conditions": "co-administration with doxorubicin, FIG. 8C", "method": "AN446 was tested in vivo using a xenograft of glioblastoma (U251 cells) in mice."}, "[7]": {"test_system": "proliferating fibroblasts in cardiac tissue", "test": "Proliferating fibroblasts in heart sections (Ki67 / vimentin immunostaining)", "format": "in vivo, mice", "conditions": "co-administration with doxorubicin, FIGS. 8B, 8C", "source_text": "In addition, by double-staining heart sections by immunostaining for the fibroblast marker vimentin and the proliferation marker Ki67, it was observed that most of the proliferating (Ki67-positive) cells in hearts of doxorubicin-treated mice were fibroblasts (vimentin-positive)."}, "U251 cells": {"test_system": "U251 cells", "test": "Hoechst viability assay 72 h / median-effect combination study", "conditions": "Homo sapiens, U-251, 72 h, read-out: IC50 value for viability in U251 cells after 72 hours", "experimental": "Hoechst assay: 22RV-1, MCF-7, MCF-7DX, 4T1, U251, and T47D cells (3×10^3 cells/well) and NCI-N87 (8×10^3 cells/well) were seeded in tissue culture in growth medium for 24 h in 96-well plates (in triplicate) and then exposed to different concentrations (titration) of the tested drug for 72 h at 37° C. The plates were then rinsed with PBS and fixed with 100 ml of 70% ethanol for 30 min. […] The fluorescence was measured (excitation at 390 nm and emission at 460 nm) with a Synergy III Fluorometer-Elisa reader (BioTek Instruments, Inc. Germany).\nThe Median Effect Analysis (MEA) for a constant combination ratio was used for drugs interaction and the combination index (CI) determination.\nThe average values of three independent experiments were calculated and analyzed with CalcuSyn software."}, "TLR4 [8]": {"test_system": "TLR4", "conditions": "24 hours, concentrations based on the IC50, FIG. 15"}}, "note": "“Also recorded” adds a separate entry of the source."}
{"smiles": "CCCC(CCC)C(=O)Nc1nc2c(ncn2COCCOC(=O)C(CCC)CCC)c(=O)[nH]1", "note": "[AN446, N-valproyl-9-(2-valproyloxy)ethoxymethyl-guanine]", "values": [{"measurement": "cell death in U251 glioblastoma cells", "setting": "[1]; 24, 48 or 72 hours, each inhibitor at its U251 IC50, FIG. 9, listed as valprostat", "result": "effective at inducing cell death in glioblastoma cells after 24, 48 or 72 hours; also recorded: particularly more effective than the other tested HDAC inhibitors at inducing cell death after 24 hours"}, {"measurement": "viability / mortality of U251 cells", "setting": "[1]; AN446 24 h, 200 nM Dox 5 h, combination compared to Dox alone, FIG. 1C", "result": "significantly enhanced the mortality"}, {"measurement": "therapeutic index (ratio of cancer cell mortality to cardiomyoblast mortality)", "setting": "[1]; U251 vs H9C2, at each time point (24, 48, 72 hours), FIG. 11", "result": "more than 2"}, {"measurement": "viability / mortality of 4T1 cells", "setting": "[2]", "result": "significantly enhanced the mortality"}, {"measurement": "HO-1 expression in the heart", "setting": "HO-1; co-treatment with Dox", "result": "increased the expression of this enzyme to a significantly higher level"}, {"measurement": "HO-1 mRNA in the heart, elevation of basal expression level", "setting": "HO-1; co-treatment with Dox", "result": "3.89±0.35", "unit": "fold"}, {"measurement": "HO-1 expression in the heart (decrease)", "setting": "HO-1; single agent, FIGS. 4D, 4E", "result": "did not significantly change"}, {"measurement": "expression of mouse bFGF protein in the heart", "setting": "bFGF; co-treatment with Dox", "result": "significantly increased its expression to a level higher than that observed in naive or vehicle-treated mice"}, {"measurement": "expression of mouse bFGF protein in the heart", "setting": "bFGF; single agent", "result": "unchanged"}, {"measurement": "expression of bFGF in tumors", "setting": "bFGF; combination with Dox", "result": "further diminished"}, {"measurement": "bFGF mRNA in the tumor", "setting": "bFGF; combined treatment with Dox", "result": "suppressed it significantly further"}, {"measurement": "bFGF mRNA in the tumor", "setting": "bFGF; single agent", "result": "significantly reduced the bFGF mRNA"}, {"measurement": "expression of bFGF in tumors", "setting": "bFGF; single agent, FIGS. 4A, 4B", "result": "decreased significantly"}, {"measurement": "VEGF expression in the heart", "setting": "VEGF", "result": "elevated"}, {"measurement": "c-Myc protein expression in the hearts", "setting": "c-Myc; heart, FIG. 5B", "result": "significantly increased its expression to a level higher than in naive or vehicle-treated mice"}, {"measurement": "c-Myc protein expression in tumors", "setting": "c-Myc; tumor, FIG. 5A", "result": "decreased dramatically"}, {"measurement": "LPS-induced expression of TLR4", "setting": "TLR4 [3]", "result": "suppressed"}, {"measurement": "LPS-induced expression of IL-6", "setting": "IL-6", "result": "suppressed"}, {"measurement": "LPS-induced expression of TNF-α", "setting": "TNF-α [4]", "result": "suppressed"}, {"measurement": "expression of IL-10", "setting": "IL-10", "result": "doubled"}, {"measurement": "paclitaxel-induced increase in expression of TLR4", "setting": "TLR4 [5]; combination with paclitaxel", "result": "significantly attenuated"}, {"measurement": "expression of TLR4", "setting": "TLR4 [5]; single agent", "result": "reduced expression of TLR4"}, {"measurement": "doxorubicin-induced rise in serum levels of TNF-α", "setting": "TNF-α [6]", "result": "prevented a doxorubicin-induced rise in serum levels of TNF-α"}, {"measurement": "doxorubicin-induced proliferation of fibroblasts in cardiac tissue", "setting": "[7]", "result": "significantly reduced the doxorubicin-induced proliferation of fibroblasts"}, {"measurement": "IC50", "setting": "U251 cells", "result": 20, "unit": "µM"}, {"measurement": "TLR4 expression in MDA-231 cells", "setting": "TLR4 [8]", "result": "considerably more effective than valproic acid at repressing TLR4"}]}
